Where two headings read alike, the source gives them in different places.
Molecular target: T1, human TRPV4 (hTRPV4/CHO cells) (Homo sapiens, UniProt Q9HBA0)
T1 construct: expressed in transfected cells; host or cells: CHO-K1
Assay: Test Example 1: TRPV4 inhibitory activity (IC50 value), 4α-PDD stimulation, Fluo4 calcium fluorescence (FLIPR TETRA)
Type: cell-based

[1] = Test Example 1, 4α-PDD stimulation, read-out: Test 1 IC50

T1 sequence (Q9HBA0 whole entry): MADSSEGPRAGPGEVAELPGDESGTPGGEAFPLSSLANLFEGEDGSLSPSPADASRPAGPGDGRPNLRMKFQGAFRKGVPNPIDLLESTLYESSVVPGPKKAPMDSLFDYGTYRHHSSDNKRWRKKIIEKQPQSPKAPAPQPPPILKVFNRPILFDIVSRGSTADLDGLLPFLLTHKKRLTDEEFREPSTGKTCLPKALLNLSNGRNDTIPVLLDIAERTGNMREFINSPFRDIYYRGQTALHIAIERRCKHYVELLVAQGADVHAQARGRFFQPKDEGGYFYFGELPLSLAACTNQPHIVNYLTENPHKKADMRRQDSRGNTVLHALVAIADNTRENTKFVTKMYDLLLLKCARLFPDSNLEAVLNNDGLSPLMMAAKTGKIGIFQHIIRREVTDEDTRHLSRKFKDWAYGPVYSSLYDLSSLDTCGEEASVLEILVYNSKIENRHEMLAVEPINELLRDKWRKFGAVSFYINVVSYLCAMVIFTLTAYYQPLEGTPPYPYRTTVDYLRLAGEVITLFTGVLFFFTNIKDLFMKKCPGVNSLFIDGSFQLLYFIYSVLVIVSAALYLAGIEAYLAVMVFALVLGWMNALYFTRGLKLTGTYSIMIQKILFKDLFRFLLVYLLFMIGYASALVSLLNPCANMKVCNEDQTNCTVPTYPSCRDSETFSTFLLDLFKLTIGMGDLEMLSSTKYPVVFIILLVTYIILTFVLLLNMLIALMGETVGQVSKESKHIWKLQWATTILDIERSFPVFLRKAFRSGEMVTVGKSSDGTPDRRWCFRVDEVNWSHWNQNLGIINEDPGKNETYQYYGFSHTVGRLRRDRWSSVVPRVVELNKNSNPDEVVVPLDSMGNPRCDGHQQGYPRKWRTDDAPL

SMILES | IC50 [1] | IC50 (1 μmol/L 4α-PDD, Fluo4-AM, read-out: TRPV4 inhibitory activity (IC50 value))
COCCOc1nc(C)c(-c2csc(NC(=O)Cc3ccc(S(=O)(=O)C(F)(F)F)cc3)n2)s1 [Compound I-445] | 1000 to 8000 nM | 
Cc1nc(OCCOCc2ccccc2)sc1-c1csc(NC(=O)Cc2ccc(S(=O)(=O)C(F)(F)F)cc2)n1 [Compound I-446] | 1000 to 8000 nM | 
Cc1nc(CO)sc1-c1csc(NC(=O)Nc2ccc(C(F)(F)F)nc2)n1 [Compound I-447] | < 100 nM | 
Cc1nc(CO)sc1-c1csc(NC(=O)C2C[C@H](C(F)(F)F)CN2C(=O)OC(C)(C)C)n1 (some centres unmarked) [Compound I-448] | < 100 nM | 
Cc1nc(CO)sc1-c1csc(NC(=O)CC2CCN(c3ncc(C(F)(F)F)cn3)CC2)n1 [Compound I-449] | < 100 nM | 
Cc1nc(CO)sc1-c1csc(NC(=O)C2CC3(CCC3)C2)n1 [Compound I-450] | < 100 nM | 
Cc1[nH]c(=O)sc1-c1csc(NC(=O)Cc2ccc(S(=O)(=O)C(F)(F)F)cc2)n1 [Compound I-451] | 100 to 1000 nM | 
Cc1nc(CO)sc1-c1csc(NC(=O)CC2CCN(S(=O)(=O)CCC(F)(F)F)CC2)n1 [Compound I-452] | 1000 to 8000 nM | 
Cc1nc(CO)sc1-c1csc(NC(=O)CC2CCN(S(=O)(=O)C(F)(F)F)CC2)n1 [Compound I-453] | 100 to 1000 nM | 
Cc1nc([C@H](C)O)sc1-c1csc(NC(=O)Cc2ccc(S(=O)(=O)C(F)(F)F)cc2)n1 [Compound I-454] | < 100 nM | 
Cc1nc([C@@H](C)O)sc1-c1csc(NC(=O)Cc2ccc(S(=O)(=O)C(F)(F)F)cc2)n1 [Compound I-455] | < 100 nM | 
Cc1nc(CO)c(-c2csc(NC(=O)Cc3ccc(S(=O)(=O)C(F)(F)F)cc3)n2)s1 [Compound I-456] | < 100 nM | 
Cc1nc(CO)sc1-c1csc(NC(=O)CC2CC3(CCC3)C2)n1 [Compound I-457] | < 100 nM | 
Cc1nc(CO)sc1-c1csc(NC(=O)CCc2ccc(Cl)cc2)n1 [Compound I-458] | < 100 nM | 
COCc1nc(C)c(-c2csc(NC(=O)Cc3ccc(S(=O)(=O)C(F)(F)F)cc3)n2)s1 [Compound I-459] | 100 to 1000 nM | 
Cc1nc(COCC(F)(F)F)sc1-c1csc(NC(=O)Cc2ccc(S(=O)(=O)C(F)(F)F)cc2)n1 [Compound I-460] | 1000 to 8000 nM | 
Cc1nc(OCCO)sc1-c1csc(NC(=O)Cc2ccc(S(=O)(=O)C(F)(F)F)cc2)n1 [Compound I-461] | 100 to 1000 nM | 
Cc1nc(CO)sc1-c1csc(NC(=O)/C=C/c2ccccc2)n1 [Compound I-462] | 100 to 1000 nM | 
O=C(Cc1ccc(S(=O)(=O)C(F)(F)F)cc1)Nc1nc(-c2sc(CO)nc2CN2CCCC2=O)cs1 [Compound I-463] | 100 to 1000 nM | 
Cc1nc(CO)sc1-c1csc(NC(=O)C2C[C@H](C(F)(F)F)CN2C(=O)C(F)(F)F)n1 (some centres unmarked) [Compound I-464] | 1000 to 8000 nM | 
Cc1nc(CO)sc1-c1csc(NC(=O)C2C[C@H](C(F)(F)F)CN2C(=O)C(F)(F)F)n1 (some centres unmarked) [Compound I-465] | 100 to 1000 nM | 
Cc1nc(CO)sc1-c1csc(NC(=O)/C=C/c2ccc(Cl)cc2)n1 [Compound I-466] | 100 to 1000 nM | 
Cc1nc(COC(N)=O)c(-c2csc(NC(=O)Cc3ccc(S(=O)(=O)C(F)(F)F)cc3)n2)s1 [Compound I-468] | < 100 nM | 
Cc1nc(C)c(-c2csc(NC(=O)Cc3cccc(C(=O)Nc4ccccc4)c3)n2)s1 [Compound I-469] | < 100 nM | 

SMILES | IC50 [1] | IC50 (1 μmol/L 4α-PDD, Fluo4-AM, read-out: TRPV4 inhibitory activity (IC50 value))
Cc1nc(C)c(-c2csc(NC(=O)C3CC4(C3)CC(F)(F)C4)n2)s1 [Compound I-470] | < 100 nM | 
CC(=O)NCc1nc(C)sc1-c1csc(NC(=O)Cc2ccc(S(=O)(=O)C(F)(F)F)cc2)n1 [Compound I-471] | < 100 nM | 
Cc1nc(CO)sc1-c1csc(NC(=O)C2C[C@H](C(F)(F)F)CN2C(=O)OCC(F)(F)F)n1 (some centres unmarked) [Compound I-475] | 100 to 1000 nM | 
Cc1nc(C(C)O)sc1-c1csc(NC(=O)[C@@H]2C[C@@H](c3ccccc3)CN2C(=O)C(F)(F)F)n1 (some centres unmarked) [Compound I-476] | < 100 nM | 
Cc1nc(C)c(-c2csc(NC(=O)Cc3ccc(S(=O)(=O)C(F)(F)F)cc3)n2)[nH]1 [Compound I-477] | 1000 to 8000 nM | 
CC(=O)Nc1nc(-c2sc(C)nc2C)cs1 [Compound I-480] | 1000 to 8000 nM | 
O=C(Cc1ccc(S(=O)(=O)C(F)(F)F)cc1)Nc1nc(-c2sc(CO)nc2CN2CCOC2=O)cs1 [Compound I-483] | 100 to 1000 nM | 
Cc1nc(CCl)c(-c2csc(NC(=O)Cc3ccc(S(=O)(=O)C(F)(F)F)cc3)n2)s1 [Compound I-484] | < 100 nM | 
Cc1nc(CS(C)(=O)=O)c(-c2csc(NC(=O)Cc3ccc(S(=O)(=O)C(F)(F)F)cc3)n2)s1 [Compound I-485] | 100 to 1000 nM | 
Cc1nc(CS(=O)(=O)C(F)(F)F)c(-c2csc(NC(=O)Cc3ccc(S(=O)(=O)C(F)(F)F)cc3)n2)s1 [Compound I-486] | 100 to 1000 nM | 
Cc1nc(CN2NCCC2=O)c(-c2csc(NC(=O)Cc3ccc(S(=O)(=O)C(F)(F)F)cc3)n2)s1 [Compound I-487] | 100 to 1000 nM | 
COC(=O)c1cccc(CC(=O)Nc2nc(-c3sc(C)nc3C)cs2)c1 [Compound I-488] | < 100 nM | 
Cc1nc(C)c(-c2csc(NC(=O)Cc3cccc(C(=O)N[C@H](c4ccccc4)C(F)(F)F)c3)n2)s1 [Compound I-489] | < 100 nM | 
Cc1nc(C)c(-c2csc(NC(=O)Cc3cccc(C(=O)N[C@@H](c4ccccc4)C(F)(F)F)c3)n2)s1 [Compound I-490] | < 100 nM | 
Cc1nc(C)c(-c2csc(NC(=O)CC3CN(Cc4ccc(C(F)(F)F)cc4)C3)n2)s1 [Compound I-491] | 1000 to 8000 nM | 
Cc1nc(C)c(-c2csc(NC(=O)CC3CN(c4ccc(C(F)(F)F)cc4)C3)n2)s1 [Compound I-492] | < 100 nM | 
Cc1nc(C)c(-c2csc(NC(=O)CC3CN(c4ccc(C(F)(F)F)cn4)C3)n2)s1 [Compound I-493] | 100 to 1000 nM | 
Cc1nc(C)c(-c2csc(NC(=O)CCC(=O)N[C@H](c3ccccc3)C(F)(F)F)n2)s1 [Compound I-494] | 100 to 1000 nM | 
Cc1nc(C)c(-c2csc(NC(=O)[C@H]3CC[C@@H](C(=O)N[C@H](c4ccccc4)C(F)(F)F)CC3)n2)s1 [Compound I-495] | 100 to 1000 nM | 
Cc1nc(C)c(-c2csc(NC(=O)C3(C)CN(c4ccc(C(F)(F)F)cc4)C3)n2)s1 [Compound I-496] | < 100 nM | 
Cc1nc(C)c(-c2csc(NC(=O)C3CN(c4ccc(C(F)(F)F)cc4)C3)n2)s1 [Compound I-497] | < 100 nM | 
Cc1nc(C)c(-c2csc(NC(=O)Cc3cccc(S(=O)(=O)Nc4ccc(C(F)(F)F)cc4)c3)n2)s1 [Compound I-498] | < 100 nM | 
Cc1nc(C)c(-c2csc(NC(=O)Cc3cccc(S(=O)(=O)N[C@H](c4ccccc4)C(F)(F)F)c3)n2)s1 [Compound I-499] | < 100 nM | 
Cc1nc(C)c(-c2csc(NC(=O)Cc3cccc(S(=O)(=O)Nc4ccccc4F)c3)n2)s1 [Compound I-501] | < 100 nM | 

SMILES | IC50 [1] | IC50 (1 μmol/L 4α-PDD, Fluo4-AM, read-out: TRPV4 inhibitory activity (IC50 value))
Cc1nc(C)c(-c2csc(NC(=O)Cc3cccc(S(=O)(=O)NCC(F)(F)F)c3)n2)s1 [Compound I-502] | < 100 nM | 
Cc1nc(C)c(-c2csc(NC(=O)C3CN(S(=O)(=O)c4ccc(Cl)cc4Cl)C3)n2)s1 [Compound I-503] | < 100 nM | 
COc1cc(CC(=O)Nc2nc(-c3sc(C)nc3C)cs2)cc(C(=O)NC(c2ccccc2)C(F)(F)F)c1 (centres unmarked) [Compound I-504] | < 100 nM | 
Cc1nc(C)c(-c2csc(NC(=O)Cc3cccc(C(=O)Nc4ccccc4F)n3)n2)s1 [Compound I-505] | < 100 nM | 
Cc1nc(C)c(-c2csc(NC(=O)Cc3cccc(C(=O)NC(c4ccccc4)C(F)(F)F)n3)n2)s1 (centres unmarked) [Compound I-506] | < 100 nM | 
Cc1nc(C)c(-c2csc(NC(=O)Cc3cccc(C(=O)NC(C(C)(C)C)C(F)(F)F)n3)n2)s1 (centres unmarked) [Compound I-507] | < 100 nM | 
Cc1nc(C)c(-c2csc(NC(=O)Cc3cccc(C(=O)Nc4ccc(C(F)(F)F)cc4)n3)n2)s1 [Compound I-508] | < 100 nM | 
COC(=O)c1cccc(CC(=O)Nc2nc(-c3sc(C)nc3C)cs2)n1 [Compound I-509] | 100 to 1000 nM | 
Cc1nc(C)c(-c2csc(NC(=O)Cc3cc(Br)cc(C(=O)N[C@H](c4ccccc4)C(F)(F)F)c3)n2)s1 [Compound I-510] | < 100 nM | 
Cc1nc(C)c(-c2csc(NC(=O)Cc3cc(O)cc(C(=O)N[C@H](c4ccccc4)C(F)(F)F)c3)n2)s1 [Compound I-511] | 1000 to 8000 nM | 
COCCOc1cc(CC(=O)Nc2nc(-c3sc(C)nc3C)cs2)cc(C(=O)N[C@H](c2ccccc2)C(F)(F)F)c1 [Compound I-513] | < 100 nM | 
Cc1nc(C)c(-c2csc(NC(=O)Cc3cc(OCCN(C)C)cc(C(=O)N[C@H](c4ccccc4)C(F)(F)F)c3)n2)s1 [Compound I-514] | 1000 to 8000 nM | 
Cc1nc(C)c(-c2csc(NC(=O)Cc3cc(OCCO)cc(C(=O)N[C@H](c4ccccc4)C(F)(F)F)c3)n2)s1 [Compound I-515] | 100 to 1000 nM | 
Cc1nc(C)c(-c2csc(NC(=O)Cc3cc(C#N)cc(C(=O)N[C@H](c4ccccc4)C(F)(F)F)c3)n2)s1 [Compound I-516] | < 100 nM | 
Cc1nc(C)c(-c2csc(NC(=O)Cc3cc(C(=O)N[C@H](c4ccccc4)C(F)(F)F)cc([N+](=O)[O-])c3)n2)s1 [Compound I-517] | < 100 nM | 
Cc1nc(C)c(-c2csc(NC(=O)Cc3cc(N)cc(C(=O)N[C@H](c4ccccc4)C(F)(F)F)c3)n2)s1 [Compound I-518] | < 100 nM | 
Cc1nc(C)c(-c2csc(NC(=O)Cc3cc(C(=O)N[C@H](c4ccccc4)C(F)(F)F)cc(-c4nnn[nH]4)c3)n2)s1 [Compound I-520] | 1000 to 8000 nM | 
Cc1nc(C)c(-c2csc(NC(=O)Cc3cc(OCC(F)(F)F)cc(C(=O)N[C@H](c4ccccc4)C(F)(F)F)c3)n2)s1 [Compound I-521] | < 100 nM | 1.6 nM
Cc1nc(C)c(-c2csc(NC(=O)Cc3cc(OCC4CC4)cc(C(=O)N[C@H](c4ccccc4)C(F)(F)F)c3)n2)s1 [Compound I-522] | < 100 nM | 
Cc1nc([C@H](C)O)sc1-c1csc(NC(=O)Cc2cc(Br)cc(C(=O)Nc3ccc(C(F)(F)F)cc3)c2)n1 [Compound I-523] | < 100 nM | 
Cc1nc([C@H](C)O)sc1-c1csc(NC(=O)Cc2cc(Br)cc(C(=O)N[C@H](c3ccccc3)C(F)(F)F)c2)n1 [Compound I-524] | < 100 nM | 
COc1cc(CC(=O)Nc2nc(-c3sc(C)nc3C)cs2)cc(C(=O)Nc2ccc(C(F)(F)F)cc2)c1 [Compound I-525] | < 100 nM | 

— US20170066759A1, “AROMATIC 5-MEMBERED HETEROCYCLIC DERIVATIVE HAVING TRPV4-INHIBITING ACTIVITY” (Shionogi & Co., Ltd., priority 2012, published 2017)
